Consider 1 compound from paper PMC4956396 (Molecular Pain, 2016).

Test [1] deals with Cav3.3 (Homo sapiens, UniProt Q9P0X4). The test is described as follows: whole-cell patch clamp, transiently transfected tsA-201 cells, % inhibition at […]. The class given is cell-based. The settings on record: tsA201, read-out: % inhibition at 10 μM. On the technique in general: In patch-clamp work, channel activity is measured electrically.
Test [2] concerns the target Cav3.1 (Homo sapiens, UniProt O43497). The description is as above. The settings on record: tsA201, read-out: % inhibition at 10 μM. The class given is cell-based.

Each structure is given as a SMILES string.

Sequence of Cav3.1 (O43497 whole entry): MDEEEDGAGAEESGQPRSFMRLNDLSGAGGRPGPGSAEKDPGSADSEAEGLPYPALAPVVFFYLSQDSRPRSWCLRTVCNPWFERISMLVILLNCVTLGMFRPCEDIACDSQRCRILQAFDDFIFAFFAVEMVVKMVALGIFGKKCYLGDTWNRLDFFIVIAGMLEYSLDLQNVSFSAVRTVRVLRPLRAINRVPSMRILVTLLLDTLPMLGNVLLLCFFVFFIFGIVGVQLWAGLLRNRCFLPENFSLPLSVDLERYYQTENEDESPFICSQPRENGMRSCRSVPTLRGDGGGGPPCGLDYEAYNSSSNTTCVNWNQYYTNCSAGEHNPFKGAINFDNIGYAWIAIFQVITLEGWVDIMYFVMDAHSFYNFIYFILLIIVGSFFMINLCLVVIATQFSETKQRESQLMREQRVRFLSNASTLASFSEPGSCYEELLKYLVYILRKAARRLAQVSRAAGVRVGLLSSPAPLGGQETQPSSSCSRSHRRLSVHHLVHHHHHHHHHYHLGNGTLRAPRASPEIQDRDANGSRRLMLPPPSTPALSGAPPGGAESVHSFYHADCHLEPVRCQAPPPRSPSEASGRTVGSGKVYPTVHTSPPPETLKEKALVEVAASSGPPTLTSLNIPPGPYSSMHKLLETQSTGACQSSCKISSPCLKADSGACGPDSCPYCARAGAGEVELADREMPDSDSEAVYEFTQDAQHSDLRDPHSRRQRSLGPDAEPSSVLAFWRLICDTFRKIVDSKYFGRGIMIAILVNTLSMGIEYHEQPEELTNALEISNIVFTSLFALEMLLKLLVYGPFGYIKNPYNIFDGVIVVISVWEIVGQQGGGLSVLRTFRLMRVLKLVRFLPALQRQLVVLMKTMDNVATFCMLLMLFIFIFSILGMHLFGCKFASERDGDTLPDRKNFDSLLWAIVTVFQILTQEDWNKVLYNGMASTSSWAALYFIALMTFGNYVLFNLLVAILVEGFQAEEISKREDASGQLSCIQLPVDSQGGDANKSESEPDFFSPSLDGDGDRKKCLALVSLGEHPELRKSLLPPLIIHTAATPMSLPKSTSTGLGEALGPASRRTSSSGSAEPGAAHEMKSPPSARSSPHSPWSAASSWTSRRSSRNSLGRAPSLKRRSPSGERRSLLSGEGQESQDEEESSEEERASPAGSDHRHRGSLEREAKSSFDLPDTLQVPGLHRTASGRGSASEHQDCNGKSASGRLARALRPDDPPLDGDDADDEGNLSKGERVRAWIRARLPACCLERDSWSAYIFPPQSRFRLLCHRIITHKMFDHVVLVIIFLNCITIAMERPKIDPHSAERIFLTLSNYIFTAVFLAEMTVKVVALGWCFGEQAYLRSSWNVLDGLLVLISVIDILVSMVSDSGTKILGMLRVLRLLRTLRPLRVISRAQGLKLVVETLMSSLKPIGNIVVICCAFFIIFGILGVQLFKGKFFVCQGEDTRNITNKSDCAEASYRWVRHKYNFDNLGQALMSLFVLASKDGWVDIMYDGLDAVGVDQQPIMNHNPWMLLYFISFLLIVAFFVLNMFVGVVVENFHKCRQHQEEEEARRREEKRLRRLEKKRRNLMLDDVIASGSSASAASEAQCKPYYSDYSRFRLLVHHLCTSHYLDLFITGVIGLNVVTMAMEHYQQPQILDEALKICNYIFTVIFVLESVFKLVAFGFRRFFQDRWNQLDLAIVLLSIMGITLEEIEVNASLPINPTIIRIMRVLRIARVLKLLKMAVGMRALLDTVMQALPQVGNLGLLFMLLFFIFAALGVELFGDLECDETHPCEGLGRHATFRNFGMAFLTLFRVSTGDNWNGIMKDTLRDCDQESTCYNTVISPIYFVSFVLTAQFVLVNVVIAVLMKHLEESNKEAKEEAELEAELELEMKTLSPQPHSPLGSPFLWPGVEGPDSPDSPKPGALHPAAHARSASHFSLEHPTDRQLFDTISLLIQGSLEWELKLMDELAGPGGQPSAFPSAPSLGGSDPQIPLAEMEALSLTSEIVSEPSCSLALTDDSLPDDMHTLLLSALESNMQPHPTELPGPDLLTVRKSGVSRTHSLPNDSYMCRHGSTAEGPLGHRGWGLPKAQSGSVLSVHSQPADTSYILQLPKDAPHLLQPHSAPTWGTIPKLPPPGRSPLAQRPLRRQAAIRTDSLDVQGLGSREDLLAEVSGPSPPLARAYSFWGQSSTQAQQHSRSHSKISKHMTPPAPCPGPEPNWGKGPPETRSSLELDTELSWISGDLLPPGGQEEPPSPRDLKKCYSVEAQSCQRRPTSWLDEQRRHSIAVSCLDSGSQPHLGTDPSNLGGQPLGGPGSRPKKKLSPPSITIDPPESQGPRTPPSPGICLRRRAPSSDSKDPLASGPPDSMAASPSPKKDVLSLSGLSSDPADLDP
Sequence of Cav3.3 (Q9P0X4 whole entry): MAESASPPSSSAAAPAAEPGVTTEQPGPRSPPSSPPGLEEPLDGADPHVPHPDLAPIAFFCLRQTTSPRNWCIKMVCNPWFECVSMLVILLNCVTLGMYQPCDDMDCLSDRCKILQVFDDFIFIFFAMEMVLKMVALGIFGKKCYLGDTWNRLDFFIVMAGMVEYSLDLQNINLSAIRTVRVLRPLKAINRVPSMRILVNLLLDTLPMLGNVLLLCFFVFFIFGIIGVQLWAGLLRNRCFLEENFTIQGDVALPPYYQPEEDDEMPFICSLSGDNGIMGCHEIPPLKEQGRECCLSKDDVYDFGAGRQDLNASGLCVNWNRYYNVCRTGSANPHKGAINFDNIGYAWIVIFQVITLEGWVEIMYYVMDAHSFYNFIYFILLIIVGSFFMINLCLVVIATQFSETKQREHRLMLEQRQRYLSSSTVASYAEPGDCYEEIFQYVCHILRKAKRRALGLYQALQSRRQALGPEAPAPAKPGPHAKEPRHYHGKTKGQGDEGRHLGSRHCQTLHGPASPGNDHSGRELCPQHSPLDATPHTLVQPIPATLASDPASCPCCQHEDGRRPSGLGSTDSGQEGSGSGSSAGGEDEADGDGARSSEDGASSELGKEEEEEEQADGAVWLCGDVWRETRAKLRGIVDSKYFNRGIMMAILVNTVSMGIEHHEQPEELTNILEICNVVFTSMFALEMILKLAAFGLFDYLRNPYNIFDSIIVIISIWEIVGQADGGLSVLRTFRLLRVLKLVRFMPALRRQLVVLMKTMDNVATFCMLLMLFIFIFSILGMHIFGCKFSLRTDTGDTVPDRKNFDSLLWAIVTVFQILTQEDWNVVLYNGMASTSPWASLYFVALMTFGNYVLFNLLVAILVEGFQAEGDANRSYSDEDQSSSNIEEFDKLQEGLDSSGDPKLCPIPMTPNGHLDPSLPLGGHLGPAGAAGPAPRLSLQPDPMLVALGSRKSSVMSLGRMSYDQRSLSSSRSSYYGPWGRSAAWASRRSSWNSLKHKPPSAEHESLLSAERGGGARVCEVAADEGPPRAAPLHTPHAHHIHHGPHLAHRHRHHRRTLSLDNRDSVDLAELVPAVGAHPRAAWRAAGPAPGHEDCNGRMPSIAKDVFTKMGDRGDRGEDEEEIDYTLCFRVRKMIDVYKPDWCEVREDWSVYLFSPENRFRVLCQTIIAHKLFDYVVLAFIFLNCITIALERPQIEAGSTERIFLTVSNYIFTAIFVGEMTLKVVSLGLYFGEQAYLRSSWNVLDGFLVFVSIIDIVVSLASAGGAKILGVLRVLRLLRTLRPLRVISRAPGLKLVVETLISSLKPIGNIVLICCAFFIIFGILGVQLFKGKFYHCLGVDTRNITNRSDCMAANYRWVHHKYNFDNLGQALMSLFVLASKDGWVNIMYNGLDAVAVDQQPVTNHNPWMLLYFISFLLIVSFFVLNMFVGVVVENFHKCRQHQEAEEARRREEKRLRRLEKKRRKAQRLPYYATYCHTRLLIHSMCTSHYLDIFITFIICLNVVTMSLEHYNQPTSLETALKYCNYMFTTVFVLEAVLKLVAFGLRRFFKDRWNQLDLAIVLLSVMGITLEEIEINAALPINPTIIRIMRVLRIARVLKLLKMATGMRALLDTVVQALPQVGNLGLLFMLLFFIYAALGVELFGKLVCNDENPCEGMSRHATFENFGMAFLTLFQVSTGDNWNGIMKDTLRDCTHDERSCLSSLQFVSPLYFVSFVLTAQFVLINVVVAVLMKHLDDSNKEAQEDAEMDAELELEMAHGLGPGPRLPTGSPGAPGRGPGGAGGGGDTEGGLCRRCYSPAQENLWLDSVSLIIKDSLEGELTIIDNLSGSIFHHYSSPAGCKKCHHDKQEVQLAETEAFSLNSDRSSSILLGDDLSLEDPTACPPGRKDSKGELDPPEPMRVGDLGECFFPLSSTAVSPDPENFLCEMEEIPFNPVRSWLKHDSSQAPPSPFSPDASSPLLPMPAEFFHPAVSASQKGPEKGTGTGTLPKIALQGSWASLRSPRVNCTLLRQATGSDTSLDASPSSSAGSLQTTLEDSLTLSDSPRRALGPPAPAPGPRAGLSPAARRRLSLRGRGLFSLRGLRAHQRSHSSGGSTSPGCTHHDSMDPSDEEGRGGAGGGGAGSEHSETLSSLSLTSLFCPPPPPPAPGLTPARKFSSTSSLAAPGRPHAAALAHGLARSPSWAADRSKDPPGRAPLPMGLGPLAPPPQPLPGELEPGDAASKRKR

A word on the inhibition: it is the percentage by which the read-out fell short of the control. In the case of `COc1ccccc1-c1no[n+]([O-])c1CN1CCN(C(c2ccc(F)cc2)c2ccc(F)cc2)CC1` [10e, 3-((4-(bis(4-fluorophenyl)methyl)piperazin-1-yl)methyl)-4-(2-methoxyphenyl)-1,2,5-oxadiazole 2-oxide], the inhibition at 10 µM in test [1] was found to be 88.4 ± 4.08%; in test [2] it was 93.3 ± 2.78%.
